From US6864288B2, “Regulation of phospholipase D activity” (Brigham & Women's Hospital, Inc., priority 1999, dated 2005)
Values belong to the compound of their own block, whether it stands above or below them.

How the values were obtained:
[1] = tested on: cabbage phospholipase D (cPLD, EC 3.1.4.4); experiment: Purified cabbage PLD activity (choline release from PC), enzyme kinetics with lipids; assay type: biochemical; details: for Ki: cPLD 3 u/reaction, 30° C., PC 0.5-5 mM, Ki from Slope = Km/Vm (1 + [I]/Ki); for Vm app: cPLD in presence of the lipid, enzyme alone Vm 0.29 (nmoles/sec); for inhibition of cPLD (in words): compared with PSDP
Description: Reactions were terminated at 30 sec intervals and choline release quantitated as in FIG. 2 legend. Values represent the mean for n≧4 for reactions in the absence of PSDP (●, r^2=0.963) and the mean for n≧3 with PSDP (Δ, r^2=0.995, 0.971 and 0.953 for 10, 100 and 1000 nM, respectively). CS Chem3D Pro software (CambridgeSoft Corp., Cambridge, Mass.) was used to calculate an energy minimized model of PSDP (inset).
(§1) PMN lysates (90-130 μg protein), purified phospholipase D (3-30 units) (EC 3.1.4.4., Sigma Chemical Co.) or recombinant hPLD1b were warmed (37° C. for mammalian enzyme and 30° C. for cabbage, 3 min) and exposed to PSDP, PSMP or FDP (10-1000 nM, 5 min, 37° C. or 30° C.) followed by PC (0.5 to 5 mM) in Tris-HCl (50 mM pH 7.5) with CaCl2 (30 mM). Reactions were terminated at 30 second intervals (0-90 seconds) with Tris-HCl (1 M) plus EDTA (50 mM). Choline release was quantitated as in ref 26.

[32P]-PSDP in human PMN = PSDP remodeling in [32P]-labeled human PMN (TLC, phosphoimaging); assay type: cell-based
Description: Panel A: Scheme for aspirin-triggered 15-epi-LXA4 biosynthesis and structure of the stable analog, 15-epi-16-para-fluoro-phenoxy-LXA4-methyl ester (15-epi-LXa) (left), and hypothetical scheme for PIPP signaling (right). PMN were labeled with [γ-^32P]-ATP and incubated (12.5×10^6 ml^−1, 37° C.) with LTB4 (●, 100 nM), 15-epi-LXa (♦, 100 nM), vehicle (□, 0.1% ethanol) or 15-epi-LXa (100 nM, 5 min) followed by LTB4 (▴, 100 nM). Non-saponifiable lipids were extracted and separated by TLC, and [^32P]-incorporation was quantitated by phosphoimaging (see Methods). Values are densitometric measurements.
Peripheral venous blood (˜180 ml) was obtained by venipuncture from healthy volunteers who denied taking any medication for at least two weeks and had given written informed consent to a protocol approved by Brighamn and Women's Hospital's Human Research Committee. PMN were isolated from whole blood and steady state labeled with [γ-^32P]ATP (40 μCiml^−1, 90 min, 37° C.) as in (Levy, B. D., Petasis, N. A., and Serhan, C. N. (1997) Polyisoprenyl phosphates in intracellular signalling. Nature 389, 985-989). Labeled PMN were resuspended (20×10^6 ml^−1 PBS with 1 mM CaCl2, pH 7.40) and exposed to LTB4 (100 nM), 15-epi-LXa (100 nM) or vehicle (0.1% EtOH) for 0 to 300 seconds (37° C.). From each incubation, aliquots were removed at indicated intervals to determine the radiolabeling of nonsaponifiable lipids (10-12×10^6 PMN) and PLD activity (1-1.25×10^6 PMN). Materials present in each incubation were saponified, extracted and separated by TLC with phosphoimaging (model 425E and integration software; Molecular Dynamics), which was used for PSDP mass determination as in ref 22.

[2] = tested on: PLD activity in human PMN; experiment: LTB4-stimulated PLD activity in lysates of treated human PMN; assay type: cell-based
Description: (§2) Cell lysates (2-5×10^6 cells, 90-130 μg protein) were prepared from the same aliquots of PMN used to determine PSDP (see FIG. 1 & Methods), warmed to 37° C. and exposed to PC (2 mM in 50 mM Tris-HCl, pH 7.5, plus 30 mM CaCl2). Reactions were terminated at 30 sec intervals and choline release was quantitated (26). […] Superoxide anion generation by freshly isolated human PMN was determined (10 min, 37° C.) for LTB4 (100 nM), 15-epi-LXa (100 nM), and increasing concentrations of 15-epi-LXa (1-100 nM, 5 min, 37° C.) followed by LTB4 (100 nM, 10 min, 37° C.). Values reported in Panel C are the mean±S.E. for n=3 separate PMN donors. *P<0.05 by Student's t-test.
Peripheral venous blood (˜180 ml) was obtained by venipuncture from healthy volunteers who denied taking any medication for at least two weeks and had given written informed consent to a protocol approved by Brighamn and Women's Hospital's Human Research Committee. […]
as §1, with “Reactions were terminated at 30 second intervals (0-90 seconds) with Tris-HCl (1 M) plus EDTA (50 mM).” left out

human PMN = experiment: LTB4-stimulated superoxide anion generation by human PMN (cytochrome c); assay type: cell-based; details: 15-epi-LXa 1-100 nM, 5 min, then LTB4 100 nM, 10 min, 37° C.
Description: as §2
Freshly isolated human PMN (1-3×10^6 PMN/ml HBSS+1.6 mM CaCl2) were incubated (5 min, 37° C.) in the presence of 15-epi-LXa (1-100 nM) or vehicle (0.1% ethanol), and then exposed (10 min) to LTB4 (100 nM) in the presence of cytochrome c (7 mg/ml). Superoxide anion generation was determined as in ref 22.

[3] = molecular target: T1, recombinant human PLD1b (rhPLD1b) (Homo sapiens, UniProt Q13393); experiment: Recombinant human PLD1b activity (choline release from PC), enzyme kinetics with PSDP; assay type: biochemical
T1 construct: made in house; host or cells: Spodoptera frugiperda Sf9 cells, recombinant baculovirus (pACGHLT transfer vector)
T1 sequence (Q13393 1-1036 isoform Q13393-2): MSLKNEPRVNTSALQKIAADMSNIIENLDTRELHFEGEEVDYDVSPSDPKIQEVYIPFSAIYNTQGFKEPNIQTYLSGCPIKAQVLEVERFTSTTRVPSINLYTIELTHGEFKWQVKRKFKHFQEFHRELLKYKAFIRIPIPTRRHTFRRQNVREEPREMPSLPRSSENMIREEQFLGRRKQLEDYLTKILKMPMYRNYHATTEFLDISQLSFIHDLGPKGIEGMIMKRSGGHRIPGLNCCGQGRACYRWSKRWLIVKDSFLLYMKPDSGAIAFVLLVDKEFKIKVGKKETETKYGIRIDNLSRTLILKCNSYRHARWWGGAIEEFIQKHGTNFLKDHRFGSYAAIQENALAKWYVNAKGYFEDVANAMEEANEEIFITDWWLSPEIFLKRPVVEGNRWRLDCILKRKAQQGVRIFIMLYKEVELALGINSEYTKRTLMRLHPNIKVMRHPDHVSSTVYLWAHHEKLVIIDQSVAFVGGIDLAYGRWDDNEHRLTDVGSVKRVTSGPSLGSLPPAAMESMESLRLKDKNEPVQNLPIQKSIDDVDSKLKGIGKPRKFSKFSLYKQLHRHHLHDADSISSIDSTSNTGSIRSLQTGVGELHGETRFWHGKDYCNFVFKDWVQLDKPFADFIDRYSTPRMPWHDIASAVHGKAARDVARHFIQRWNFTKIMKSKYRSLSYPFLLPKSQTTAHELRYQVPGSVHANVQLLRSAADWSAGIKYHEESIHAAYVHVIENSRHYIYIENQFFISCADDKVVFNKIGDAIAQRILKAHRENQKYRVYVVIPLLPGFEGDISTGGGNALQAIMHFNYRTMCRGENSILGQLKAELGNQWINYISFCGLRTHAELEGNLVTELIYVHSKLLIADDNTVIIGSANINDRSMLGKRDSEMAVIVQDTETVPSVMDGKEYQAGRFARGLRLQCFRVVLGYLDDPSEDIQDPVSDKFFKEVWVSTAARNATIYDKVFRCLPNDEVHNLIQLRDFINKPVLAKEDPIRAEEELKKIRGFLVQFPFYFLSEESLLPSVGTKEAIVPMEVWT
Description: Spodoptera frugiperda (Sf9) cells were cultured in suspension at 2×10^5 to 2×10^6 cells/ml TC 100 medium supplemented with 10% fetal calf serum (Gibco). A cDNA encoding human PLD1b (cloned from placental tissue) was inserted into the transfer vector pACGHLT (Pharmingen) downstream of, and in frame with, vector sequences encoding glutathione-S-transferase (GST), hexahistidine, a protein kinase A phosphorylation site and a thrombin cleavage site. The GST-hPLD1b construct was cotransfected into Sf9 cells with linearized, polyhedrin-minus (PH-), AcMNPV DNA, Bac-N-Blue, according to the supplier's instructions (Invitrogen). Homologous recombination between linearized virus and the transfer vector restored the function of essential viral gene ORF1629 to yield infectious, recombinant virus. After two rounds of plaque-purification, recombinant virus was amplified by large scale infections of Sf9 cells until a titer of 8×10^7 pfu/ml was obtained. […]
as §1, with “Reactions were terminated at 30 second intervals (0-90 seconds) with Tris-HCl (1 M) plus EDTA (50 mM).” left out

[4] = tested on: PLD activity in PMN lysates; experiment: PLD activity in PMN lysates after LTB4, lipid added to the lysate; assay type: biochemical, human; details: 100 nM added to PMN lysates 60 sec after LTB4 100 nM
Description: Lysates were generated from cells at rest or after exposure to agonist using a lysis buffer comprised of 0.1 M Hepes (pH 7.4), 0.7 mM sodium orthovanadate, 10 μM p-nitrophenylphosphate, 10 mM EGTA, 5.5% triton X-100, 0.5 M β-glycerophosphate, 10 mM phenylmethylsulfonylfluoride, 0.1 mM ammonium molybdate, 12 mM DFP, 5 μgml^−1 leupeptin, 2 μgml^−1 aprotinin and 7 μgml^−1 pepstatin A (as in ref 25) and utilized for bioassay.
as §1
Because PLD activation occurs in vivo in the presence of many cofactors which modulate its activity, it was also determined the impact of PSDP on PLD activity in PMN lysates. Sixty seconds following LTB4, PSDP levels decreased (28%, FIG. 1) and PLD activity was maximal (FIG. 2).

[5] = effect on LTB4-stimulated changes in PSDP

loss in inhibitory potency compared to PSDP ([1]; cPLD): greater than 100 fold | Ki [1]: 3210 nM | Vm app [1]: 0.36
Compound: CC(C)=CCC/C(C)=C/CC/C(C)=C/C1C(COP(=O)(O)O)C1(C)CC/C=C(\C)CCC=C(C)C (stereo in doubt) [Presqualene monophosphate, presqualene monophosphate]

Compound: CCCCC[C@H](O)/C=C/C=C\C=C\C=C\[C@@H](O)[C@@H](O)CCCC(=O)O [LXA4, lipoxin A4]
rank order of potency ([32P]-PSDP in human PMN; [5]): 15-epi-LXa>16-phenoxy-LXA4>LXA4

Compound: COC(=O)CCC[C@H](O)[C@H](O)/C=C/C=C/C=C\C=C\[C@H](O)COc1ccc(F)cc1 [15-epi-LXa, 15-epi-16-para-fluoro-phenoxy-LXA4-methyl ester]
inhibition of LTB4-stimulated PLD activity ([2]; 15-epi-LXa 100 nM, 5 min, then LTB4 100 nM, at 60 sec): ~81% | effect alone on rate of PIPP remodeling ([32P]-PSDP in human PMN; 100 nM, without LTB4): did not affect the rate of PIPP remodeling | increase in [32P]-PSDP ([32P]-PSDP in human PMN; 15-epi-LXa 100 nM, 5 min, then equimolar LTB4 100 nM, at 60 sec): ~72% | potency relative to 16-phenoxy-LXA4 and LXA4 ([32P]-PSDP in human PMN; [5]): 1-2 orders of magnitude | rank order of potency ([32P]-PSDP in human PMN; [5]): 15-epi-LXa>16-phenoxy-LXA4>LXA4 | inhibition of LTB4-stimulated O2- generation (in words) (human PMN): potently inhibited

Compound: COC(=O)CCC[C@H](O)[C@H](O)/C=C/C=C/C=C\C=C\[C@H](O)COc1ccccc1 [16-phenoxy-LXA4, 16-phenoxy-LXA4-methyl ester]
rank order of potency ([32P]-PSDP in human PMN; [5]): 15-epi-LXa>16-phenoxy-LXA4>LXA4

Vm app [1]: 0.46 | inhibition of cPLD (in words) [1]: Comparable inhibition was not evident
Compound: CC(C)=CCC/C(C)=C/CC/C(C)=C/CC/C=C(\C)CC/C=C(\C)CCC=C(C)C [Squalene]

mode of inhibition (Lineweaver-burk analyses) ([1]; PSDP 10 to 1000 nM): competitive inhibition model | Ki [1]: 20 nM | Vm app [1]: 0.25
Compound: CC(C)=CCC/C(C)=C/CC/C(C)=C/C1C(COP(=O)(O)OP(=O)(O)O)C1(C)CC/C=C(\C)CCC=C(C)C (stereo in doubt) [Presqualene diphosphate, presqualene diphosphate]
Ki ([3]; rhPLD1b 0.3 u/reaction, 37° C.): 6 nM | Vm app ([3]; rhPLD1b in presence of the lipid, enzyme alone Vm 0.36 (nmoles/sec)): 0.03 | inhibition of PLD activity [4]: 89.5+/−9.7%

Compound: CCCCC/C=C\C[C@@H](O)/C=C/C=C/C=C\[C@@H](O)CCCC(=O)O [LTB4, leukotriene B4]
time of maximal increase in PLD activity ([2]; LTB4 100 nM): ≤ 60 s | decrease in [32P]-PSDP ([32P]-PSDP in human PMN; LTB4 100 nM, within 60 sec, 37° C.): 28%

Vm app [1]: 0.43 | inhibition of cPLD (in words) [1]: Comparable inhibition was not evident
Compound: phosphatidic acid
